Measured values: patent US9182666B2, “Cyclic compound, method for producing the same, radiation-sensitive composition, and resist pattern formation method” (MITSUBISHI GAS CHEMICAL COMPANY, INC., priority 2011, dated 2015)

Experiment: Solubility test of compound in safe solvent
Assay type: physicochemical
Settings: 23° C.; for dissolution amount in CHN: cyclohexanone (CHN); for dissolution amount in PGME: propylene glycol monomethyl ether (PGME)
Experimental: The dissolution amounts of compounds obtained in the above synthesis examples 1 to 6 and syntheses 1 and 2 in propylene glycol monomethyl ether (PGME) and cyclohexanone (CHN) were evaluated as follows.
• A: 5.0% by mass≦dissolution amount • B: 3.0% by mass≦dissolution amount<5.0% by mass • C: dissolution amount<3.0% by mass *dissolution amount (% by mass)=mass (g) of compound dissolved in 100 g of solvent of 23° C./(100 g of mass of solvent+mass (g) of compound dissolved in 100 g of solvent of 23° C.)×100

| Structure (SMILES) | dissolution amount in CHN | dissolution amount in PGME |
| --- | --- | --- |
| Oc1cc(O)c2cc1C(c1ccc(C3CCCCC3)cc1)c1cc(c(O)cc1O)C(c1ccc(C3CCCCC3)cc1)c1cc(c(O)cc1O)C(c1ccc(C3CCCCC3)cc1)c1cc(c(O)cc1O)C2c1ccc(C2CCCCC2)cc1 (stereo not shown) [CR-2A] | B (3.0% by mass≦dissolution amount<5.0% by mass) | B (3.0% by mass≦dissolution amount<5.0% by mass) |
| CC(C)c1ccc(C2c3cc(c(O)cc3O)C(c3ccc(C(C)C)cc3)c3cc(c(O)cc3O)C(c3ccc(C(C)C)cc3)c3cc(c(O)cc3O)C(c3ccc(C(C)C)cc3)c3cc2c(O)cc3O)cc1 (stereo not shown) [CR-1A] | C (dissolution amount<3.0% by mass) | B (3.0% by mass≦dissolution amount<5.0% by mass) |
